Measurements: patent US20020183300A1, “Zinc ionophores as anti-stress agents” (priority 2001, published 2002)

Tests used:
[1] = tested on: cultured HUVEC, isolated cardiac myocytes, cultured cerebellar neurons; test: Zinc ionophore screening with Fura-2 loaded cells (fluorescence ratio 340/380 nm); type: cell-based, human; rabbit; mouse; conditions: for zinc ionophore activity (slope of Fura-2 fluorescence intensity ratio): zinc-complexed holo-ionophore, 1 μM in superfusion buffer, 37° C.; for ionophore activity compared across cell types: HUVEC, cardiac myocytes, cerebellar neurons
Method: Human umbilical vein endothelial cells (HUVEC) were purchased from Clonetics (San Diego, Calif.) and passages DeKeyser F. G. et al. (2000) Neuroimmunomodulation 7:182-188; Revilla V. et al. Brain Res. Bull 49:413-418; Troullos E. et al. (1997) Clin. Pharmacol. Ther. 62:74-81 were used for these studies. Cells were cultured on flame-sterilzed glass coverslips in Endothelial Basal Medium (Clonetics) supplemented with 10 ng/ml human recombinant epidermal growth factor, 1.0 ug/ml hydrocortisone, 50 ug/ml gentamicin, 50ng/ml amphotetericin B, 12 ug/ml bovine brain extract and 2% v/v fetal bovine serum (all from Clonetics), in a humidified chamber at 37° C. and 5% CO2. To maintain cell populations, proliferating HUVEC were passaged at 80-90% confluency.
Cardiac myocytes were isolated from the ventricular septum of adult rabbit hearts, following collagenase digestion, in a manner similar to that described previously (Turan, B. et al., (1997) Am. J. Physiol. 272:H2095-H2106). The modification consisted of introducing low concentrations of CaCl2 during the perfusion with collagenase and the dispersion of the myocytes. Hearts were perfused for about 2 min by gravity under a hydrostatic pressure of 1 m, with a nominally Ca^2+-free solution containing (in mM): NaCl, 145; KCl, 5; MgSO4, 1.2; Na2HPO4, 1.8; HEPES, 5; glucose, 10; pH adjusted to 7.4 with NaOH. Forty ml of this perfusate were then supplemented with collagenase (1 mg/ml) and perfusion was continued with recirculation. […] The flow rate was then adjusted to 15 ml/min and 50 μM CaCl2 was added to the collagenase solution. Perfusion with this solution was continued for another 15 to 18 min, followed by a 2 min washout of the enzyme with fresh perfusate containing 100 μM CaCl2 and no collagenase. The hearts were then removed from the apparatus and the ventricular septum isolated and minced. Dissociation of the cells was obtained by gentle agitation of the minced tissue in 50 ml of the same perfusing solution. Following filtration through a 200 μm nylon mesh, the cells were allowed to settle and the supernatant was replaced with a solution containing 2 mM CaCl2. Cells were kept at 37° C. in this pre-oxygenated solution and were studied within 8 hours after isolation, cellular viability was ensured by regularly replacing the incubation solution.
Primary cultures of mouse cerebellar granule neurons were obtained from dissociated cerebella of postnatal day 8 or 9 mice according to the following protocol (Cregan et al., (1999) J. Neurosci. 19:7860-7869, incorporated herein by reference). Brains were removed and placed into separate dishes containing solution A (124 mM NaCl, 5.37 mM KCl, 1 mM NaH2 P04, 1.2 mM MgSO4, 14.5 mM D-(1)-glucose, 25 mM HEPES, 3 mg/ml BSA, pH 7.4) in which the cerebella were dissected, meninges removed, and tissue sliced into small pieces. The tissue was briefly centrifuged and transferred to solution A containing 0.25 mg/ml trypsin, then incubated at 37° C. for 18 min. After the addition of 0.082 mg/ml trypsin inhibitor (Boehringer Mannheim, Indianapolis, Ind.) and 0.25 mg/ml DNase I (Boehringer Mannheim), the tissue was incubated at 25° C. for 2 min. After a brief centrifugation, the resulting pellet was gently titrated in solution A yielding suspension that was further incubated for 10 min at 25° C. in solution A containing 2.7 mM MgSO4 and 0.03 mM CaCl2. After a final centrifugation the pellet was resuspended in EMEM media (Sigma, St. Louis, Mo.) containing 10% dialyzed FBS (Sigma), 25 mM KCl, 2 mM glutamine (Life Technologies BRL, Gaithersburg, Md.), 25 mM glucose, and 0.1 mg/ml gentamycin (Sigma) and filtered through a cell strainer (size 70 μm; Falcon). Cells were plated on glass coverslips coated with poly-D-lysine (Sigma) in Nunc fourwell dishes at a density of 1.5×10^6 cells per milliliter of medium. Cytosine-arabinoside (10 μM; Sigma) was added 24 hr after plating.

NF-κB = NF-κB electrophoretic mobility shift assay on brain nuclear extracts, coronary artery ligation model; type: in vivo, rat; conditions: rats subjected to coronary occlusion 45 min, reperfusion 4 h; i.v. boluses at 0, 1, 2 h postreperfusion; ZnP 1.2 μg/kg, ZnDDC 8.3 ng/kg
Method: (§1) Coronary artery ligation model Male Sprague-Dawley rats (250-300 g) were anesthetized, intubated and ventilated. The chest was opened and the coronary artery was ligated. After 45 min, the suture was released and reperfusion was continued for 4 h. Boluses (0.5 ml) of the zinc ionophores ZnP (1.2 μg/kg) and ZnDDC (8.3 ng/kg) were administered intravenously in 4% DMSO in saline at 0, 1, and 2 h postreperfusion. After 4 h of reperfusion the ligature was retied, and Evans blue dye was infused intravenously to demarcate the area at risk. The rats were then killed by exsanguination and the brain was collected for analysis. Sham-surgery rats were treated in an identical manner but without tying the ligature around the coronary artery.
(§2) Brain samples were homogenized on ice using six slow strokes of a Teflon pestle homogenizer at 1000 rpm in 8 volumes of buffer containing 0.25 M sucrose, 10 mM HEPES, pH 7.6, 25 mM KCl, 1 mM EDTA, 10% glycerol, 0.15 mM spermine, and 0.5 mM spermidine. […] Protein concentrations were determined using the Bio Rad protein assay.
(§3) Double-stranded consensus oligonucleotides for NF-kB and Spl (Promega, Madison, Wis.) were 5 radiolabelled with g[^32P]ATP (Amersham, Arlington Heights, Ill.). […] The intensity of the bands was quantitated with a densitometer and commercially available software (Molecular Analyst, Bio-Rad Laboratories, Hercules, Calif.).

Spl = Spl electrophoretic mobility shift assay on brain nuclear extracts, coronary artery ligation model; type: in vivo, rat; conditions: rats subjected to coronary occlusion 45 min, reperfusion 4 h; ZnDDC 8.3 ng/kg i.v. at 0, 1, 2 h postreperfusion
Method: as §1, §2, §3

Structure (SMILES) | zinc-ionophore properties [1] | zinc ionophore activity (slope of Fura-2 fluorescence intensity ratio) [1] | ionophore activity compared across cell types [1] | NF-κB binding activity in the brain (NF-κB) | Spl binding activity in the brain (in words) (Spl)
Oc1cccc2cccnc12 [8-Hydroxyquinoline] | possess zinc-ionophore properties | 8-Hydroxyquinoline, ✓ | – | – | –
S=C(S)N1CCCC1 [Pyrrolidinedithiocarbamate] | – | Pyrrolidinedithiocarbamate ✓✓ | – | – | –
CCN(CC)C(=S)SSC(=S)N(CC)CC [Disulfiram] | – | Disulfiram ✓✓ | – | – | –
CC1=C(/C=C/C(C)=C/C=C/C(C)=C/CO)C(C)(C)CCC1 [Vitamin A (all-trans-retinol), all-trans-retinol] | possess zinc-ionophore properties | Vitamin A (all-trans-retinol) ✓ | – | – | –
Cc1c(C)c2c(c(C)c1O)CC[C@@](C)(CCC[C@H](C)CCC[C@H](C)CCCC(C)C)O2 [Vitamin E, alpha-tocopherol] | possess zinc-ionophore properties | – | – | – | –
Oc1c(I)cc(I)c2cccnc12 [5,7-Diiodo-8-hydroxyquinoline] | possess zinc-ionophore properties | 5,7-Diiodo-8-hydroxyquinoline ✓✓ | comparable in all three cell types tested | – | –
COc1ccc2c(c1)c(CC(=O)O)c(C)n2C(=O)c1ccc(Cl)cc1 [Indomethacin] | – | Indomethacin ✓ | – | – | –
CCN(CC)C(=S)S [ZNDDC, zinc-diethyldithiocarbamate] | possess zinc-ionophore properties | diethyldithiocarbamate ✓✓ | comparable in all three cell types tested | restored normal NF-κB binding activity | restored Spl binding activity to normal
